Reference: patent publication US20040014209A1, “Compositions and methods for modulating cell differentiation” (priority 2002, published 2004)

Experiments:
[1] = system: ventral marginal zone (VMZ) explants; assay: VMZ explant assay: mRNA injection, cardiac-specific gene expression and beating; type: cell-based, Xenopus laevis
Procedure: In a modification of this assay (FIG. 6A), we targeted mRNAs encoding Wnt and BMP antagonists to VMZ tissue by microinjection into the equatorial region of both ventral blastomeres of four-cell stage embryos. VMZ explants were isolated at stage 10, cultured, and assayed at stage 30 by RT-PCR for cardiac-specific gene expression.
Embryos were fertilized in vitro, dejellied in 2% cysteine-HCl (pH 7.8), and maintained in 0.1×MMR. Explant dissections were performed in 0.75×MMR using an eyelash knife. Embryos were staged according to Nieuwkoop and Faber (1994).
Marginal zone explants were dissected at stage 10. Those explants to be examined by RT-PCR for expression of heart field marker- and heart muscle-specific genes were cultured until sibling embryos were stage 30. In situ hybridization was performed on explants cultured to the equivalent of stage 23 or stage 30. Explants to be scored for formation of beating hearts were maintained until the equivalent of stage 41.
mRNA was transcribed from pSP35-chd, pSP64-ngn, pCS2-DKK1, pCS2-Crescent, pCS2-GSK3, pCS2-WIF, pCS2-dnXwnt8, pCS2-szl, and pXT7-FrzA using the SP6 and T7 mMessage mMachine kits (Ambion). All cDNAs used encode Xenopus proteins except those for Wnt1 and crescent, which encode chick isoforms. The Xenopus form of crescent was identified while this manuscript was in preparation (Pfeffer et al. 1997; Pera and De Robertis 2000; Shibata et al. 2000) and functions identically to the chick isoform in our assays. Xenopus and chick Crescent share 88% amino acid positional identity within the cysteine-rich domain. Injections were performed in 3% Ficoll in 1×MMR. Embryos were injected equatorially into the two ventral or two dorsal blastomeres at the four-cell stage to target expression to the ventral or dorsal marginal zone. The amount of mRNA injected is given in the text. For plasmid cDNA injections, 75 pg of pCS2-Xwnt3A, pCS2-Xwnt5A, and pCSKA-Xwnt8 and 100 pg of pCS2-cWnt11 supercoiled plasmid constructs were injected.
RT-PCR was performed as described in Schneider and Mercola (1999). Twenty-five cycles were performed at an annealing temperature of 55° C., unless otherwise noted. Expression of EF1α was used as a positive control for the reverse transcriptase reaction. The following additional primers were used: XNkx2.5+, […] (SEQ ID NO: 7); XNkx2.5−, […] (SEQ ID NO: 8); M. actin+, […] (SEQ ID NO: 9); M. actin−, […] (SEQ ID NO: 10) (22 cycles); TnIc+, […] (SEQ ID NO: 11); TnIc−, […] (SEQ ID NO: 12); MHCα+, […] GTTCCG (SEQ ID NO: 13); MHCα−, […] (SEQ ID NO: 14); Tbx5+, […] (SEQ ID NO: 15); Tbx5−, […] (SEQ ID NO: 16) (27 cycles); XNkx2.10+, […] (SEQ ID NO: 17); and XNkx2.10−, […] (SEQ ID NO: 18) (59° C., 28 cycles).
A secreted version of the C-terminal fragment was made by fusing the secretory region of human Dkk1 to the C-terminal region cysteine rich region, as described above. This protein is referred to as “C1.” Briefly, the HindIII-Asp718 C-terminal fragment of human Dkk1 (SEQ ID NO: 1) was ligated to the sequence encoding the secretory signal of Dkk1 and cloned into a vector permitting in vitro transcription. As a control, full length Dkk1 was used. RNA was prepared in vitro from the vector as described above. The RNA encoded a polypeptide comprising amino acids 158-266 of SEQ ID NO: 2. The RNA was then injected into noncardiogenic frog embryonic mesoderm, as described above and in Schneider and Mercola (2001) Genes & Dev. 15:304.

Wnt8 = biological target: T1, Wnt8 (Xenopus laevis, UniProt P28026); assay: Block of Wnt8 induction of Siamois in animal caps; type: cell-based; settings: RT-PCR at stage 10.5
T1 construct: expressed in transfected cells; host or cells: Xenopus laevis embryos (mRNA injection at the two-cell stage), animal caps isolated at stage 9
T1 sequence (P28026 23-358): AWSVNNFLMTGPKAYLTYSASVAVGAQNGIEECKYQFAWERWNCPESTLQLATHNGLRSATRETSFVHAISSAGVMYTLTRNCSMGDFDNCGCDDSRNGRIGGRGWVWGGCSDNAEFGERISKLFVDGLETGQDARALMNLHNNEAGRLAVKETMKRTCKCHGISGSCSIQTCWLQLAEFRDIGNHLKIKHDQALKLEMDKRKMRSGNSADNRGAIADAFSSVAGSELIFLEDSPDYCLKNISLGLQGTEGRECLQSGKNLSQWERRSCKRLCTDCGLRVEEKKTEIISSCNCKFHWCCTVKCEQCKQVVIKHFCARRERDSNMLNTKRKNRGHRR
Procedure: FIG. 6. dkk-1 and crescent, but not frzb, induce cardiac specific gene expression in noncardiogenic tissue. (A) mRNAs encoding various Wnt and BMP antagonists were injected equatorially into ventral blastomeres at the four-cell stage. Ventral marginal zone (VMZ) tissue was then explanted from Xenopus laevis at stage 10 and cultured until analyzed by RT-PCR for gene expression at stage 30 (see Materials and Methods). (B) Injection of dkk-1 or crescent induced both markers of cardiac mesoderm (Tbx5 and Nkx2.5) and heart muscle-specific genes (cardiac isoform of troponin-I, Tnlc, and myosin heavy chain-α, MHCα) in VMZ tissue. frzb, in contrast, induced muscle actin (m. actin), which is primarily a skeletal muscle marker, but not cardiac specific gene expression. […] Wnt8 and Wnt antagonist mRNAs were injected into the animal region of two-cell-stage embryos and caps were isolated at stage 9, cultured, and processed for RT-PCR at stage 10.5 (F). […] EF1α expression is shown as a control for the RT reaction in all cases.
The reason for the difference in doses of dkk-1 and crescent mRNA required to induce muscle actin and the cardiac-specific markers was explored further by evaluating their relative ability to block Siamois induction by Wnt8 (FIG. 6F, G). […]

With dkk-1 the “Explants with rhythmic beating” value ([1]; 900 pg dkk-1, 1.5 ng crescent or 1.5 ng frzb mRNA, scored at stage 41) was 73.2%, the “Explants with induced cement glands” value ([1]; VMZ explants cultured to stage 41) was 90.7% and the “mRNA dose inducing cardiac-specific gene expression” value ([1]; VMZ explants, RT-PCR at stage 30) was at least 450 pg. For the same substance, the “Heart-specific gene expression (TnIc, MHCα)” value ([1]; mRNA injected ventrally at four-cell stage, VMZ explants, RT-PCR stage 30) was “strong expression of TnIc and MHCα” and the “Wnt8 induction of Siamois” value (Wnt8) was “block Wnt8 induction of Siamois”.
